target: T1, K-Ras G12C (Homo sapiens, UniProt P01116, G12C); experiment: CAF assay (% CAF; method in Example 7, not in this part); format: binding; settings: 10 uM, 1 h; Table 3
T1 construct: This protein contained 188 amino acids in total, including an N-terminal 6-Histidine tag; made in house; host or cells: E. coli BL21

Row | Compound | % CAF @ 10 uM, 1h
1 | C=CC(=O)N1CCN(c2nc(=O)n3c4c(c(-c5ccc(F)cc5F)c(Cl)cc24)S(=O)(=O)CC3)[C@@H](C)C1 [Example 148] | 95.9%
2 | C=CC(=O)N1CCN(c2nc(=O)n3c4c(c(-c5ccc(F)cc5F)c(Cl)cc24)S(=O)(=O)CC3)[C@@H](C)C1 [Example 149, (S)-7-((S)-4-acryloyl-2-methylpiperazin-1-yl)-9-chloro-10-(2,4-difluorophenyl)-2,3-dihydro-5H-[1,4]thiazino[2,3,4-ij]quinazolin-5-one 1,1-dioxide] | 52.8%
3 | C=CC(=O)N1CCN(c2nc(=O)n3c4c(c(-c5ccc(F)cc5F)c(Cl)cc24)SCC3)[C@@H](CO)C1 [Example 150, 7-((R)-4-acryloyl-2-(hydroxymethyl)piperazin-1-yl)-9-chloro-10-(2,4-difluorophenyl)-2,3-dihydro-5H-[1,4]thiazino[2,3,4-ij]quinazolin-5-one] | 59.9%
4 | C=CC(=O)N1CCN(c2nc(=O)n3c4c(c(-c5ccc(F)cc5)c(Cl)cc24)SCC3)[C@@H](C)C1 [Example 151, (S)-7-(4-acryloyl-2-methylpiperazin-1-yl)-9-chloro-10-(4-fluorophenyl)-2,3-dihydro-5H-[1,4]thiazino[2,3,4-ij]quinazolin-5-one] | 94.1%
5 | C=CC(=O)N1CCN(c2nc(=O)n3c4c(c(-c5cc(O)ccc5F)c(Cl)cc24)SCC3)[C@@H](C)C1 [Example 152, 7-((S)-4-acryloyl-2-methylpiperazin-1-yl)-9-chloro-10-(2-fluoro-5-hydroxyphenyl)-2,3-dihydro-5H-[1,4]thiazino[2,3,4-ij]quinazolin-5-one] | 55.3%
6 | C=CC(=O)N1CCN(c2nc(=O)n3c4c(c(-c5cc(O)ccc5Cl)c(Cl)cc24)SCC3)[C@@H](C)C1 [Example 153, 7-((S)-4-acryloyl-2-methylpiperazin-1-yl)-9-chloro-10-(2-chloro-5-hydroxyphenyl)-2,3-dihydro-5H-[1,4]thiazino[2,3,4-ij]quinazolin-5-one] | 55.7%
7 | C=CC(=O)N1CCN(c2nc(=O)n3c4c(c(-c5cccc6ccccc56)c(Cl)cc24)SCC3)[C@@H](C)C1 [Example 154, (R)-7-((S)-4-acryloyl-2-methylpiperazin-1-yl)-9-chloro-10-(naphthalen-1-yl)-2,3-dihydro-5H-[1,4]thiazino[2,3,4-ij]quinazolin-5-one] | 24%
8 | C=CC(=O)N1CCN(c2nc(=O)n3c4c(c(-c5cccc6ccccc56)c(Cl)cc24)SCC3)[C@@H](C)C1 [Example 155, (S)-7-((S)-4-acryloyl-2-methylpiperazin-1-yl)-9-chloro-10-(naphthalen-1-yl)-2,3-dihydro-5H-[1,4]thiazino[2,3,4-ij]quinazolin-5-one] | 92.2%
9 | C=CC(=O)N1[C@@H](C)CN(c2nc(=O)n3c4c(c(-c5ccc(F)cc5F)c(Cl)cc24)SCC3)C[C@@H]1C [Example 156, 7-((3S,5S)-4-acryloyl-3,5-dimethylpiperazin-1-yl)-9-chloro-10-(2,4-difluorophenyl)-2,3-dihydro-5H-[1,4]thiazino[2,3,4-ij]quinazolin-5-one] | 0%
10 | C=CC(=O)N1[C@H](C)CN(c2nc(=O)n3c4c(c(-c5ccc(F)cc5F)c(Cl)cc24)SCC3)C[C@@H]1C [Example 157, 7-((3R,5S)-4-acryloyl-3,5-dimethylpiperazin-1-yl)-9-chloro-10-(2,4-difluorophenyl)-2,3-dihydro-5H-[1,4]thiazino[2,3,4-ij]quinazolin-5-one] | 95%
11 | C=CC(=O)N1CCN(c2nc(=O)n3c4c(c(-c5ccc(F)cc5F)c(Cl)cc24)SCC3)[C@H](C)C1 [Example 158, 7-((R)-4-acryloyl-2-methylpiperazin-1-yl)-9-chloro-10-(2,4-difluorophenyl)-2,3-dihydro-5H-[1,4]thiazino[2,3,4-ij]quinazolin-5-one] | 64%
12 | C=CC(=O)N1CCN(c2nc(=O)n3c4c(c(-c5c(C)ccc6[nH]ncc56)c(Cl)cc24)SCC3)[C@@H](C)C1 [Example 159, 7-((S)-4-acryloyl-2-methylpiperazin-1-yl)-9-chloro-10-(5-methyl-1H-indazol-4-yl)-2,3-dihydro-5H-[1,4]thiazino[2,3,4-ij]quinazolin-5-one] | 37.2%
13 | C=CC(=O)N1CCN(c2nc(=O)n3c4c(c(-c5ccccc5F)c(Cl)cc24)SCC3)[C@@H](C)C1 [Example 160, 7-((S)-4-acryloyl-2-methylpiperazin-1-yl)-9-chloro-10-(2-fluorophenyl)-2,3-dihydro-5H-[1,4]thiazino[2,3,4-ij]quinazolin-5-one] | 72.7%
14 | C=CC(=O)N1C[C@H](C#N)N(c2nc(=O)n3c4c(c(-c5ccc(F)cc5F)c(Cl)cc24)SCC3)C[C@H]1C [Example 161, (2R,5R)-4-acryloyl-1-(9-chloro-10-(2,4-difluorophenyl)-5-oxo-2,3-dihydro-5H-[1,4]thiazino[2,3,4-ij]quinazolin-7-yl)-5-methylpiperazine-2-carbonitrile] | 1%
15 | C=CC(=O)N1CCN(c2nc(=O)n3c4c(c(-c5cc(C(F)F)ccc5F)c(Cl)cc24)SCC3)[C@@H](C)C1 [Example 162, 7-((S)-4-acryloyl-2-methylpiperazin-1-yl)-9-chloro-10-(5-(difluoromethyl)-2-fluorophenyl)-2,3-dihydro-5H-[1,4]thiazino[2,3,4-ij]quinazolin-5-one] | 39%
16 | C=CC(=O)N1CCN(c2nc(=O)n3c4c(c(-c5cc(OC(F)F)ccc5F)c(Cl)cc24)SCC3)[C@@H](C)C1 [Example 163, 7-((S)-4-acryloyl-2-methylpiperazin-1-yl)-9-chloro-10-(5-(difluoromethoxy)-2-fluorophenyl)-2,3-dihydro-5H-[1,4]thiazino[2,3,4-ij]quinazolin-5-one] | 41.4%
17 | C=CC(=O)N1CCN(c2nc(=O)n3c4c(c(-c5ccc(F)cc5F)c(Cl)cc24)SCC3)CC1 [Example 164, 7-(4-acryloylpiperazin-1-yl)-9-chloro-10-(2,4-difluorophenyl)-2,3-dihydro-5H-[1,4]thiazino[2,3,4-ij]quinazolin-5-one] | 95.1%
18 | C=CC(=O)N1C2CC1CN(c1nc(=O)n3c4c(c(-c5ccc(F)cc5F)c(Cl)cc14)SCC3)C2 [Example 165, 7-(6-acryloyl-3,6-diazabicyclo[3.1.1]heptan-3-yl)-9-chloro-10-(2,4-difluorophenyl)-2,3-dihydro-5H-[1,4]thiazino[2,3,4-ij]quinazolin-5-one] | 16.9%
19 | C=CC(=O)N1CCN(c2nc(=O)n3c4c(c(-c5ccc(F)cc5F)c(Cl)cc24)SCC3)CC1=O [Example 166, 7-(4-acryloyl-3-oxopiperazin-1-yl)-9-chloro-10-(2,4-difluorophenyl)-2,3-dihydro-5H-[1,4]thiazino[2,3,4-ij]quinazolin-5-one] | 65.5%
20 | C=CC(=O)N1CCN(c2nc(=O)n3c4c(c(-c5ccccc5C(F)(F)F)c(Cl)cc24)SCC3)[C@@H](C)C1 [Example 167, 7-((S)-4-acryloyl-2-methylpiperazin-1-yl)-9-chloro-10-(2-(trifluoromethyl)phenyl)-2,3-dihydro-5H-[1,4]thiazino[2,3,4-ij]quinazolin-5-one] | 69.8%
21 | C=CC(=O)N1CCN(c2nc(=O)n3c4c(c(-c5c(O)cccc5F)c(Cl)cc24)SCC3)[C@@H](C)C1 [Example 168, 7-((S)-4-acryloyl-2-methylpiperazin-1-yl)-9-chloro-10-(2-fluoro-6-hydroxyphenyl)-2,3-dihydro-5H-[1,4]thiazino[2,3,4-ij]quinazolin-5-one] | 30.6%
22 | C=CC(=O)N1CCN(c2nc(=O)n3c4c(c(-c5ccc(F)cc5F)c(Cl)cc24)SCC3)[C@@H](CN2CCC2)C1 [Example 169, 7-((S)-4-acryloyl-2-(azetidin-1-ylmethyl)piperazin-1-yl)-9-chloro-10-(2,4-difluorophenyl)-2,3-dihydro-5H-[1,4]thiazino[2,3,4-ij]quinazolin-5-one] | 23.3%
23 | C=CC(=O)N1CCN(c2nc(=O)n3c4c(c(-c5c(F)cccc5F)c(Cl)cc24)SCC3)[C@@H](C)C1 [Example 170, (S)-7-(4-acryloyl-2-methylpiperazin-1-yl)-9-chloro-10-(2,6-difluorophenyl)-2,3-dihydro-5H-[1,4]thiazino[2,3,4-ij]quinazolin-5-one] | 75.9%
24 | C=CC(=O)N1CCN(c2nc(=O)n3c4c(c(-c5cc(Cl)ccc5Cl)c(Cl)cc24)SCC3)[C@@H](C)C1 [Example 171, 7-((S)-4-acryloyl-2-methylpiperazin-1-yl)-9-chloro-10-(2,5-dichlorophenyl)-2,3-dihydro-5H-[1,4]thiazino[2,3,4-ij]quinazolin-5-one] | 48.9%
25 | C=CC(=O)N1CCN(c2nc(=O)n3c4c(c(-c5ccc(F)cc5F)c(Cl)cc24)SCC3)[C@@H](C#N)C1 [Example 173, (2R)-4-acryloyl-1-(9-chloro-10-(2,4-difluorophenyl)-5-oxo-2,3-dihydro-5H-[1,4]thiazino[2,3,4-ij]quinazolin-7-yl)piperazine-2-carbonitrile] | 2.2%
26 | C=CC(=O)N1CCN(c2nc(=O)n3c4c(c(-c5cccc(Cl)c5F)c(Cl)cc24)SCC3)[C@@H](C)C1 [Example 174, 7-((S)-4-acryloyl-2-methylpiperazin-1-yl)-9-chloro-10-(3-chloro-2-fluorophenyl)-2,3-dihydro-5H-[1,4]thiazino[2,3,4-ij]quinazolin-5-one] | 93.8%
27 | C=CC(=O)N1CCN(c2nc(=O)n3c4c(c(-c5cc(Cl)ccc5F)c(Cl)cc24)SCC3)[C@@H](C)C1 [Example 175, 7-((S)-4-acryloyl-2-methylpiperazin-1-yl)-9-chloro-10-(5-chloro-2-fluorophenyl)-2,3-dihydro-5H-[1,4]thiazino[2,3,4-ij]quinazolin-5-one] | 79.8%
28 | C=C(F)C(=O)N1CCN(c2nc(=O)n3c4c(c(-c5ccc(F)cc5F)c(Cl)cc24)SCC3)C[C@@H]1CC#N [Example 176, 2-((2S)-4-(9-chloro-10-(2,4-difluorophenyl)-5-oxo-2,3-dihydro-5H-[1,4]thiazino[2,3,4-ij]quinazolin-7-yl)-1-(2-fluoroacryloyl)piper-azin-2-yl)acetonitrile] | 40.5%
